Source: patent US20230190723A1 (MEREO BIOPHARMA 4 LIMITED, priority 2020, published 2023)

Key:
NE = target: T1, NE (Homo sapiens, UniProt P08246); assay: enzyme kinetics: SlaaapN cleavage by NE in the presence of inhibitor; format: biochemical
T1 construct: purchased Athens Research and Technology, US
T1 sequence (P08246 30-267): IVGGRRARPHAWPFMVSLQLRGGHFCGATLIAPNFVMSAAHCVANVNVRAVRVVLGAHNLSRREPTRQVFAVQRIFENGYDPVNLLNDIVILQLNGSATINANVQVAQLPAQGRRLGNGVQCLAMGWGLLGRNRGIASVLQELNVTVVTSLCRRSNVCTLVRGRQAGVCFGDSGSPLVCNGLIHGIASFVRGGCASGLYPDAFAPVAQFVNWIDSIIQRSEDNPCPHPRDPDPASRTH
Procedure: Results were determined computationally using Prism software.

neutrophil elastase = target: T2, neutrophil elastase (Homo sapiens, UniProt P08246); assay: proteinase/anti-proteinase imbalance model (fMLP-stimulated isolated neutrophils with fibrinogen, NE activity footprint Aα-Val360); format: cell-based; details: for NE activity remaining, % of untreated (Aα-Val360): no inhibitor = 100%
T2 construct: Neutrophils from healthy young volunteers were isolated; endogenous in cells; host or cells: neutrophils isolated from blood of healthy young volunteers, stimulated with fMLP in the presence of fibrinogen
T2 sequence (P08246 30-267): T1 sequence (P08246 30-267)
Procedure: Neutrophils from healthy young volunteers were isolated using a method broadly described by Jepsen and Skottun [10].
Supernatant was obtained through centrifugation, and NE activity footprints were measured.

neutrophils = assay: validation of the Aα-Val360 assay with stimulated neutrophils; format: cell-based, human; details: 15 minutes
Procedure: Baseline corrected Aα-Val^360 levels following stimulation of neutrophils at 2.5 million/ml with Cal at 2.4/2.1/1.8/1.5/1.2/0.9/0.6/0.3 μM with fibrinogen (550 nM) for 60 minutes; n=3.
Change in Aα-Val^360 levels following stimulation of neutrophils at 2.5 million/ml with fMLP at 0, 0.1,1,10 μM fMLP with fibrinogen (550 nM) for 15 minutes; n=3.
To determine maximal stimulation a potent stimulator of neutrophils, Cal, [11] was titrated out from 0-2.4 μM and specific proteinase fibrinogen-cleavage product measured.
To assess a more physiological stimulus, neutrophils were then incubated with N-formylmethionine-leucyl-phenylalanine (fMLP).

[1] = target: Porcine Pancreatic Elastase (Sus scrofa, UniProt P00772); assay: enzyme kinetics: SlaaapN cleavage by PPE after incubation with AAT; format: biochemical
[2] = simple linear regression, control fixed at 100%

Chain of Porcine Pancreatic Elastase (P00772 27-266): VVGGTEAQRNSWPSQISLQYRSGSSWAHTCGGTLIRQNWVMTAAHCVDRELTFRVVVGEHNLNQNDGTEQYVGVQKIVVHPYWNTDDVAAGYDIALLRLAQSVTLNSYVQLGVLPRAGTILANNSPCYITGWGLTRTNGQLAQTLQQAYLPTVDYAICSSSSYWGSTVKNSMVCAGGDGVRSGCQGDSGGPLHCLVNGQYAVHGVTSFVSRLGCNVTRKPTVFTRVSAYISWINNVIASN

Cc1c(-c2ccnn2C)cc(C(=O)NCc2ccc(S(C)(=O)=O)cn2)c(=O)n1-c1cccc(C(F)(F)F)c1 [alvelestat, 6-methyl-5-(1-methyl-1H-pyrazol-5-yl)-N-{[5-(methylsulfonyl)pyridin-2-yl]methyl}-2-oxo-1-[3-(trifluoromethyl)phenyl]-1,2-dihydropyridine-3-carboxamide]
molar ratio of inhibitor required to fully inhibit NE (inhibitor:NE, x:1) (NE; SlaaapN substrate, by extrapolation): 0.87
Slope, best-fit value (alvelestat:NE ratio vs NE enzymatic activity, FIG. 7) (NE; [2]): −114.4
X-intercept, best-fit value (alvelestat:NE ratio vs NE enzymatic activity, FIG. 7) (NE; [2]): 0.8742
alvelestat activity against NE (NE; titrated against elastase of known concentration and activity, Prism): 88%
NE activity remaining, % of untreated (Aα-Val360) (neutrophil elastase; alvelestat 10 nM): 60.1%
NE activity remaining, % of untreated (Aα-Val360) (neutrophil elastase; alvelestat 1000 nM): 27.4%
inhibition at 1 µM (neutrophil elastase; read-out: inhibition (suppression) of NE activity): 72.6%

CSCC[C@H](NC=O)C(=O)N[C@@H](CC(C)C)C(=O)N[C@@H](Cc1ccccc1)C(=O)O [fMLP, N-formyl-L-methionyl-L-leucyl-phenylalanine]
increase of NE activity (Aα-Val360) (neutrophils; 0.1 μM fMLP, neutrophils 2.5 million/ml, fibrinogen 550 nM): 11.4 nM
further increase of NE activity (Aα-Val360) (neutrophils; 1 μM fMLP, relative to 0.1 μM): 7.3 nM
increase of NE activity (Aα-Val360) (neutrophils; 10 μM fMLP, the values are: Aα-Val360 level (NE activity)): 35 nM

AAT: protective anti-proteinase alpha-1 antitrypsin, physiological inhibitor of neutrophil serine proteinases; purified batch from Athens Research & Technology
molar concentration of AAT required to neutralise 1 Mol active PPE ([1]; SlaaapN substrate): 1.208 mol
functional AAT activity ([1]; calculated from 1.208:1 AAT:PPE): 83%
